According to article PMC3078584 (Analytical biochemistry, 2010):

Target: T1, His-Cbl(TKB) (Homo sapiens, UniProt P22681)
T1 sequence (P22681 47-351 limits assumed): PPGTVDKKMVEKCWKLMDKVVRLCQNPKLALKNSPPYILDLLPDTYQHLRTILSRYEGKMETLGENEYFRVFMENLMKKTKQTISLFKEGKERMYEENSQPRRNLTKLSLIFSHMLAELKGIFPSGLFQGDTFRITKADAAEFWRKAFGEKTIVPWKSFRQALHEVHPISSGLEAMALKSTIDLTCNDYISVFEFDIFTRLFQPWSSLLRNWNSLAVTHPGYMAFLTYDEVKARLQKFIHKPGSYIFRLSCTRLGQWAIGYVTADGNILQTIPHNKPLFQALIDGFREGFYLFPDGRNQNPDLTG
Assay: Competitive FP assay, displacement of labeled ZAP70 peptide 1 from His-Cbl
Type: binding
Conditions: 100 nM labeled peptide 1

SMILES: CC(=O)N[C@H](C(=O)N[C@@H](CC(C)C)C(=O)N[C@@H](CC(N)=O)C(=O)N[C@@H](CO)C(=O)N[C@@H](CC(=O)O)C(=O)NCC(=O)N[C@@H](Cc1ccc(OP(=O)(O)O)cc1)C(=O)N[C@H](C(=O)N1CCC[C@H]1C(=O)N[C@@H](CCC(=O)O)C(=O)N1CCC[C@H]1C(=O)N[C@@H](C)C(N)=O)[C@@H](C)O)[C@@H](C)O [ZAP70 peptide 2, Ac-TLNSDGpYTPEPA-CONH2]
- ΔmP (competition) (0.3 μM His-Cbl(TKB)): do not give measureable IC50 or ΔmP values
- ΔmP (competition) (1.25 μM His-Cbl(TKB)): do not give measureable IC50 or ΔmP values
- ΔmP (competition) (5 μM His-Cbl(TKB)): 52.5 mP
- ΔmP (competition) (9 μM His-Cbl(TKB)): 85.2 mP
- ΔmP (competition) ([…] His-Cbl(TKB)): 25.7 mP
